We go through six molecules from PMC10280131 (RSC Advances, 2023).

Marks after values point to notes of the source that are not given here.

For data set [1], the target named is Acetylcholinesterase (AChE) (Homo sapiens, UniProt P22303). Kind of data set: Acetylcholinesterase inhibition screening. The format is biochemical.
Data set [2] is described as follows: Antioxidant assay by DPPH scavenging.
The test system of data set [3] is AD-induced rats. Kind of data set: T-maze test in AlCl3-induced AD rats. In kind it is in vivo, rat. Particulars: Treatment 4 weeks; for T-maze test, time taken to reach food: seconds, n = 10.
For data set [4], the system named is Bcl-2 gene. The data set can be described thus: Bcl-2 gene expression in brain samples of AD induced rats. In kind it is in vivo, rat. Particulars: AD rats treated vs AD rats.
For data set [5], the system named is Wistar rats. The data set can be described thus: Acute toxicity, oral, rats.
In data set [6] the test system is Bax gene. Kind of data set: Bax gene expression in brain samples of AD induced rats. In kind it is in vivo, rat. The conditions noted are these: AD rats treated vs AD rats.
Data set [7] has as its system Alzheimer's disease-induced rats. Kind of data set: Beam balance test in AlCl3-induced AD rats. The conditions noted are these: Treatment 4 weeks. In kind it is in vivo, rat.
Data set [8] has as its system male Wistar rats. In kind it is in vivo, rat.
Data set [9] relates to Tau gene. The data set can be described thus: Tau gene expression in brain samples of AD induced rats. Particulars: AD rats treated vs AD rats. In kind it is in vivo, rat.
In data set [10] the test system is brain tissue of AD-induced rats. Kind of data set: Brain oxidative stress markers. In kind it is in vivo, rat.
The test system of data set [11] is liver, kidneys, heart, and brain. Kind of data set: Histopathological examination of chronic toxicity study. In kind it is in vivo, mice. The conditions noted are these: H&E.
Where [12] appears, read: male rats, 10 mg per kg body weight.
Setting [13] is: male rats, 10 mg per kg body weight, one month.

Chain of Acetylcholinesterase (AChE) (P22303 32-614, species assumed): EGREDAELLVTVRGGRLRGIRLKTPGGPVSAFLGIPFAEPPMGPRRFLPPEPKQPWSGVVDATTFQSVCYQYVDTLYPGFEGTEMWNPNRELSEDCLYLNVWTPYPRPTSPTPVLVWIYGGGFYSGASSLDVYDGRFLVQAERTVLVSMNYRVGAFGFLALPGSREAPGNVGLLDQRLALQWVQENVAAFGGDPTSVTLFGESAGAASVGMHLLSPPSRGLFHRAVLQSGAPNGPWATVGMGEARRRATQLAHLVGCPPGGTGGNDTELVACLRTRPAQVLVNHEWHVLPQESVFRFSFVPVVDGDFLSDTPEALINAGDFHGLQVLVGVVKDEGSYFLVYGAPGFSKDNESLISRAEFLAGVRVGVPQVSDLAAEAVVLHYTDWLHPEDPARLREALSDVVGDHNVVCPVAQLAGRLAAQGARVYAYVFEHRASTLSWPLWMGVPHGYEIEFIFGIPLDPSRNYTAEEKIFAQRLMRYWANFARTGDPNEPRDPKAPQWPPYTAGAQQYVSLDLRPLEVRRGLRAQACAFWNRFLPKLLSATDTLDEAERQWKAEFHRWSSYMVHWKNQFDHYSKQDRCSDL

For orientation: IC50 means the concentration at which inhibition is half-maximal. `Cc1cc(=O)oc2cc(OCC(=O)NN=Cc3ccc(C(=O)O)cc3)ccc12` [Compound 4d, 4-((2-(2-((4-Methyl-2-oxo-2H-chromen-7-yl)oxy)acetyl) hydrazineylidene)methyl) benzoic acid] gave a half-maximal inhibitory concentration (IC50) in data set [1] of 3.15 µM. Further, the results for the “Percent of antioxidant activity (DPPH scavenging)” value (“Percent of antioxidant activity” below) in [2] (Concentration (0.01 mg)) and in data set [2] (Concentration (0.05 mg)) were 4.5 ± 0.4% and 10.3 ± 0.33%, respectively.
`Cc1cc(=O)oc2cc(OCC(=O)NN=C3CCc4ccccc43)ccc12` [Compound 4c, N′-(2,3-Dihydro-1H-inden-1-ylidene)-2-((4-methyl-2-oxo-2H-chromen-7-yl)oxy)acetohydrazide] showed an IC50 in [1] of 2.21 µM. Also, in data set [3], the “T-maze test, % improvement” value worked out at 148.37% and the “T-maze test, time taken to reach food” value was determined as 28.20 ± 1.80 Sc. In addition, the “Expression of Bcl-2 gene” value in [4] is “improved expression”. Also, the Mortality entry in data set [5] (50 mg per kg b.wt, rats) is recorded as “No mortality”. Moreover, in data set [5] (100 mg per kg b.wt, post 24 h, one rat of 4), the Mortality was determined as 25%. Moreover, the “Percent of antioxidant activity” value in [2] (Concentration (0.01 mg)) was determined as 28.00 ± 0.4%. Besides, the “Percent of antioxidant activity” value in data set [2] (Concentration (0.05 mg)) amounted to 57.14 ± 2.77%. Also, in data set [6], the “Expression of Bax gene” value was “reduced expression”. In addition, in [7], the “Beam balance test time” value amounted to 8.99 ± 1.00 Sc and the “Beam balance test, % improvement” value is 60.00%. In [8] (10 mg per kg b.wt orally, male Wistar rats, one month), the “Signs of chronic toxicity” value is listed as “didn't see any indication of harmfulness”. Further, in data set [8] (10 mg per kg b.wt, one month), the “Change in blood profile levels vs control rats” value is given as “insignificant changes”; the “Change in creatinine level vs untreated group” value is “significant increase”; the “Change in hepatic enzyme levels (AST, ALT, and ALP) vs control group” value is reported as “insignificant difference”; the “Change in total urea level vs untreated group” value is on record as “insignificant change”. In [8] (setting [12]), the ALP is 136.00 ± 9.00 ^a U/l, the ALT is 79.00 ± 4.40 ^a U/l, the AST is 32.00 ± 1.20 ^a U/l and the Creatinine was 2.80 ± 0.07 mg/dL. Besides, the Urea in data set [8] (setting [12]) turned out to be 20.00 ± 1.57 mg/dL. For the same molecule, in data set [8] (setting [13]), the Haematocrit is recorded as 45.00 ± 1.87 ^a %, the “Hemoglobin (Hb)” value is 14.58 ± 0.59 ^a g L^−1, the Lymphocyte is 7.62 ± 0.66 ^a 10^3 cm^−1 and the MPV is 8.66 ± 0.19 ^a fL. In data set [8] (setting [13]), the “Mean corpuscular hemoglobin (MCH)” value is on record as 17.78 ± 0.88 ^a pg, the “Mean corpuscular hemoglobin concentration (MCHC)” value is given as 33.98 ± 0.25 ^a g dL^−1, the “Mean corpuscular volume (MCV)” value is 59.00 ± 0.03 ^a fL and the Monocyte is listed as 1.93 ± 0.06 ^a 10^3 cm^−1. Besides, in [8] (setting [13]), the Neutrophils is reported as 2.39 ± 0.09 ^a 10^3 cm^−1, the Platelets is on record as 465.00 ± 12.00 ^a 10^3 mm^−1, the RDW-CV is on record as 15.80 ± 0.19 ^a % and the “Red blood cells (RBCs)” value is 8.00 ± 0.08 ^a million cells per mm. The “White blood cells WBCs” value in data set [8] (setting [13]) is 10.89 ± 1.90 ^a 10^3 cmm^−1. In addition, the “Expression of Tau gene” value in data set [9] was “reduced expression”. In [10] (AD-induced rats), this molecule displayed a GSH % improvement of 27.17% and an MDA % improvement of 90.64%. For the same molecule, in data set [10] (AD-induced rats, n = 8), the GSH was determined as 21.66 ± 1.21 mg per g tissues and the MDA is 22.43 ± 1.66 mg per g tissues. In data set [10] (vs AD group), the “GSH % change to disease” value is 59.26% and the “MDA % change to disease” value is recorded as 32.19%. Besides, in data set [11], the “Heart and brain histopathology” value is reported as “no histopathological damage”; the Kidney histopathology entry is given as “no histopathological alterations”; the Liver histopathology result is “slight Kupffer cell proliferation”.
As to `O=C1O[C@H]([C@@H](O)CO)C(O)=C1O` [Vitamin C, ascorbic acid, reference compound], the “Percent of antioxidant activity” value in [2] (Concentration (0.01 mg)) amounted to 80.00 ± 5.00%; in data set [2] (Concentration (0.05 mg)), 89.00 ± 6.99%.
Turning to `COc1cc2c(cc1OC)C(=O)C(CC1CCN(Cc3ccccc3)CC1)C2` (centres unmarked) [Donepezil, reference compound], in [3], the “T-maze test, % improvement” value was determined as 181.70% and the “T-maze test, time taken to reach food” value is 23.10 ± 1.70 Sc. Moreover, in [7], the “Beam balance test time” value is 9.80 ± 0.88 Sc and the “Beam balance test, % improvement” value is on record as 67.98%.
For `Cc1cc(=O)oc2cc(OCC(=O)NN=C3CCCc4ccccc43)ccc12` [Compound 4a, N′-(3,4-dihydronaphthalen-1(2H)-ylidene)-2-((4-methyl-2-oxo-2H-chromen-7-yl)oxy)acetohydrazide], in [1], the 50% inhibitory concentration (IC50) was 13.1 µM. The “Percent of antioxidant activity” value is recorded as 31.8 ± 0.2% in data set [2] (Concentration (0.01 mg)) and 40.9 ± 3.1% in [2] (Concentration (0.05 mg)).
In data set [1], `Cc1cc(=O)oc2cc(OCC(=O)NN=C3C(=O)Nc4ccccc43)ccc12` [Compound 4b, 2-((4-Methyl-2-oxo-2H-chromen-7-yl)oxy)-N′-(2-oxoindolin-3-ylidene) acetohydrazide] had a concentration for half-maximal inhibition (IC50) of 20.9 µM. Moreover, the figures for the “Percent of antioxidant activity” value in [2] (Concentration (0.01 mg)) and in data set [2] (Concentration (0.05 mg)) were 31.8 ± 1.2% and 35.00 ± 1.00%, respectively.
